{
  "source": "patent US20120237563A1",
  "about": "“CONTROLLED-RELEASE FORMULATIONS OF […] AND USES THEREOF” (UNIVERSITY OF FLORIDA RESEARCH […]., priority 2009, published 2012)",
  "origin": "cited, not measured here",
  "conditions": "clinical studies",
  "data": [
    {"smiles": "COc1ccc(/C=C2\\CCCN=C2c2cccnc2)c(OC)c1", "note": "[DMXBA, 3-(2,4-dimethoxybenzylidene)-anabaseine]", "values": [
      {"measurement": "Safety of large oral doses", "result": "without adverse effects"},
      {"measurement": "Half-life", "setting": "oral", "result": "two"}
    ]}
  ]
}
